# Experimental data as given in US12371454B2, “Cyclic peptide compound having Kras inhibitory action” (priority 2019, dated 2025).
# Positions of bridges follow the written chain, without caps; N, C: chain ends. Non-standard residues stand in square brackets, D forms with d. Residues, ends and D or L forms follow the SMILES beside them. *: point of attachment. hPhe(3,5-F2-4-CF3) = N[C@@H](CCc1cc(F)c(C(F)(F)F)c(F)c1)C(=O)O; hPhe(3-Cl-4-CF3) = N[C@@H](CCc1ccc(C(F)(F)F)c(Cl)c1)C(=O)O; NMePhe(2-CF3) = CN[C@@H](Cc1ccccc1C(F)(F)F)C(=O)O; hPhe(4-CF3) = N[C@@H](CCc1ccc(C(F)(F)F)cc1)C(=O)O; NMePhe(4-Cl) = CN[C@@H](Cc1ccc(Cl)cc1)C(=O)O; NMePhe(4-Me) = CN[C@@H](Cc1ccc(C)cc1)C(=O)O; NMeGly(cPent) = CN[C@H](C(=O)O)C1CCCC1; Phe(2-OMe) = COc1ccccc1C[C@H](N)C(=O)O; Phe(3-I) = N[C@@H](Cc1cccc(I)c1)C(=O)O; Pro(4,4-F2) = O=C(O)[C@@H]1CC(F)(F)CN1; NMeGly(cBu) = CN[C@H](C(=O)O)C1CCC1; NMeCha = CN[C@@H](CC1CCCCC1)C(=O)O; Azetidine(3,3-F2) = FC1(F)CN(*)C1; NMeChg = CN[C@H](C(=O)O)C1CCCCC1; NMeF = CN[C@@H](Cc1ccccc1)C(=O)O; NMeD = CN[C@@H](CC(=O)O)C(=O)O; CH2CONHtBu = CC(C)(C)NC(=O)C*; NMeL = CN[C@@H](CC(C)C)C(=O)O; NMeV = CN[C@H](C(=O)O)C(C)C; d(β3hA) = C[C@@H](N)CC(=O)O; NMeS = CN[C@@H](CO)C(=O)O; NMeA = CN[C@@H](C)C(=O)O; NMeAib = CNC(C)(C)C(=O)O; Nle = CCCC[C@H](N)C(=O)O; Piperidide = C1CCN(*)CC1; Pyrrolidide = C1CCN(*)C1; Ac5c = NC1(C(=O)O)CCCC1; Aze = O=C(O)[C@@H]1CCN1; Aib = CC(C)(N)C(=O)O; Isopentyl = CC(C)CC*; Sar = CNCC(=O)O; OAll = C=CCO*
# Biological target: T1, Kras and SOS1 (biotin-tagged human Kras loaded with GDP, His-tagged human SOS1) (Homo sapiens, UniProt P01116, G12D)
# T1 construct: made in house; host or cells: E. coli (stated for Kras only)
# T1 sequence (P01116 1-188 isoform P01116-2 G12D): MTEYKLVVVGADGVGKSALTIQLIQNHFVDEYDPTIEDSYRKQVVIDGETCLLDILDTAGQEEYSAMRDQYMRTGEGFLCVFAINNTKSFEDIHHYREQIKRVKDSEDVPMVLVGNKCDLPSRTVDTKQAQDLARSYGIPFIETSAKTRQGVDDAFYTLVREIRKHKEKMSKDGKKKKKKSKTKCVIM
# Assay: Protein-protein interaction inhibition between Kras and SOS1 (KrasGl2D-SOS PPI) using AlphaScreen
# Type: binding
# Conditions: AlphaScreen; biotin-tagged human Kras loaded with GDP, His-tagged human SOS1; read-out: KRAS G12D-SOS PPI IC50
# Summary of the method: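 Donor beads (nickel) hold His-SOS1; acceptor beads (streptavidin) hold biotin-Kras bound to GDP. Signal measured at 520-620 nm following 680 nm excitation.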
row,Compound,IC50
1,CC[C@H](C)[C@@H]1NC(=O)[C@H](CC(C)C)N(C)C(=O)C[C@@H](C)NC(=O)[C@H](C(C)C)N(C)C(=O)C2(CCCC2)NC(=O)[C@@H]2CCCN2C(=O)[C@H](CCc2ccc(C(F)(F)F)c(Cl)c2)NC(=O)CN(C)C(=O)[C@H](Cc2ccccc2)N(C)C(=O)CN(C)C(=O)CN(C)C1=O [Compound 1606] (cyclo([Ac5c][NMeV][d(β3hA)][NMeL]I[Sar][Sar][NMeF][Sar][hPhe(3-Cl-4-CF3)]P)),15 nM
2,CC[C@H](C)[C@@H]1NC(=O)[C@H](CC(C)C)N(C)C(=O)C[C@@H](C)NC(=O)[C@H](C(C)C)N(C)C(=O)C(C)(C)NC(=O)[C@@H]2CCCN2C(=O)[C@H](CCc2ccc(C(F)(F)F)c(Cl)c2)NC(=O)CN(C)C(=O)[C@H](CC2CCCCC2)N(C)C(=O)CN(C)C(=O)CN(C)C1=O [Compound 641] (cyclo([Aib][NMeV][d(β3hA)][NMeL]I[Sar][Sar][NMeCha][Sar][hPhe(3-Cl-4-CF3)]P)),18 nM
3,CC[C@H](C)[C@@H]1NC(=O)[C@H](CC(C)C)N(C)C(=O)C[C@@H](C(=O)N2CCCCC2)N(C)C(=O)[C@H](CC(C)C)NC(=O)C(C)(C)N(C)C(=O)[C@H](Cc2ccccc2OC)NC(=O)[C@H](Cc2cccc(I)c2)NC(=O)CN(C)C(=O)[C@H](Cc2ccc(C)cc2)N(C)C(=O)CN(C)C(=O)CN(C)C1=O [Compound 1100] ([NMeL]I[Sar][Sar][NMePhe(4-Me)][Sar][Phe(3-I)][Phe(2-OMe)][NMeAib]L[NMeD]-Piperidide; lactam N-11),6.3 nM
4,"CC[C@H](C)[C@@H]1NC(=O)[C@H](C2CCC2)N(C)C(=O)C[C@@H](C(=O)N2CCCC2)N(C)C(=O)[C@H](C2CCCCC2)N(C)C(=O)C2(CCCC2)NC(=O)[C@@H]2CC(F)(F)CN2C(=O)[C@H](CCc2cc(F)c(C(F)(F)F)c(F)c2)NC(=O)CN(C)C(=O)[C@H](CC2CCCCC2)N(C)C(=O)CN(C)C(=O)CN(C)C1=O [Compound 1295] ([NMeGly(cBu)]I[Sar][Sar][NMeCha][Sar][hPhe(3,5-F2-4-CF3)][Pro(4,4-F2)][Ac5c][NMeChg][NMeD]-Pyrrolidide; lactam N-11)",0.5 nM
5,"CC[C@H](C)[C@@H]1NC(=O)[C@H](CC(C)C)N(C)C(=O)C[C@@H](C(=O)N(C)C)N(C)C(=O)[C@H](C2CCCC2)N(C)C(=O)[C@H](COC)NC(=O)[C@H](CC(=O)N2CC(F)(F)C2)N(C)C(=O)[C@H](CCc2ccc(C(F)(F)F)c(Cl)c2)NC(=O)CN(C)C(=O)[C@H](CC2CCCCC2)N(C)C(=O)[C@@H]2CCN2C(=O)[C@H](C)N(C)C1=O [Compound 1108] ([NMeL]I[NMeA][Aze][NMeCha][Sar][hPhe(3-Cl-4-CF3)][NMeD](Azetidine(3,3-F2))S(Me)[NMeGly(cPent)][NMeD]-NMe2; lactam N-11)",11 nM
6,CCCC[C@@H]1NC(=O)[C@H](Cc2cccc(I)c2)NC(=O)CN(C)C(=O)[C@H](Cc2ccc(Cl)cc2)N(C)C(=O)CN(C)C(=O)CN(C)C(=O)[C@H]([C@@H](C)CC)NC(=O)[C@H](CC(C)C)N(C)C(=O)C[C@@H](C(=O)N2CCCCC2)N(C)C(=O)[C@H](CC(C)C)NC(=O)[C@H](Cc2ccccc2C(F)(F)F)N(C)C1=O [Compound 813] ([NMeL]I[Sar][Sar][NMePhe(4-Cl)][Sar][Phe(3-I)][Nle][NMePhe(2-CF3)]L[NMeD]-Piperidide; lactam N-11),69 nM
7,CC[C@H](C)[C@@H]1NC(=O)[C@H](CC(C)C)N(C)C(=O)C[C@@H](C)NC(=O)[C@H](CC(C)C)N(C)C(=O)C(C)(C)NC(=O)[C@H](COCC(=O)NC(C)(C)C)N(C)C(=O)[C@H](CCc2ccc(C(F)(F)F)c(Cl)c2)NC(=O)CN(C)C(=O)[C@H](COCCC(C)C)N(C)C(=O)CN(C)C(=O)CN(C)C1=O [Compound 1467] (cyclo([Aib][NMeL][d(β3hA)][NMeL]I[Sar][Sar][NMeS](Isopentyl)[Sar][hPhe(3-Cl-4-CF3)][NMeS](CH2CONHtBu))),120 nM
8,CC[C@H](C)[C@@H]1NC(=O)[C@H](CC(C)C)N(C)C(=O)C[C@@H](C(=O)N2CCCCC2)N(C)C(=O)[C@H](C(C)C)N(C)C(=O)C2(CCCC2)NC(=O)[C@@H]2CCCN2C(=O)[C@H](CCc2ccc(C(F)(F)F)c(Cl)c2)NC(=O)CN(C)C(=O)[C@H](CC2CCCCC2)N(C)C(=O)[C@@H]2CCN2C(=O)[C@H](C2CCCCC2)N(C)C1=O [Compound 1600] ([NMeL]I[NMeChg][Aze][NMeCha][Sar][hPhe(3-Cl-4-CF3)]P[Ac5c][NMeV][NMeD]-Piperidide; lactam N-11),310 nM
9,C=CCOC(=O)CC[C@@H]1NC(=O)[C@H](CCc2ccc(C(F)(F)F)cc2)NC(=O)CN(C)C(=O)[C@H](Cc2ccc(Cl)cc2)N(C)C(=O)CN(C)C(=O)CN(C)C(=O)[C@H]([C@@H](C)CC)NC(=O)[C@H](C)N(C)C(=O)C[C@@H](C(=O)N2CCCC2)NC(=O)[C@H](CC(C)C)N(C)C(=O)[C@H](Cc2ccccc2)N(C)C1=O [Compound 306] ([NMeA]I[Sar][Sar][NMePhe(4-Cl)][Sar][hPhe(4-CF3)]E(OAll)[NMeF][NMeL]D-Pyrrolidide; lactam N-11),44 nM
